Data published in patent publication US6229029A, “11β-aryl substituted 14,17-ethanoestratriens, method for the production of these compounds and their use in the production of medicaments” (Schering Aktiengesellschaft, priority 1997, dated 2001).

Legend:
[1] = target: T1, estrogen receptors (Homo sapiens, UniProt P03372); assay: Transactivation assay in HeLa cells (partial estrogenic action, rPR-TK); assay type: cell-based; details: rPR-TK reporter, read-out: Agonism HELA (rPR-TK)
T1 construct: expressed in transfected cells; host or cells: HeLa cells
T1 sequence (P03372 whole entry): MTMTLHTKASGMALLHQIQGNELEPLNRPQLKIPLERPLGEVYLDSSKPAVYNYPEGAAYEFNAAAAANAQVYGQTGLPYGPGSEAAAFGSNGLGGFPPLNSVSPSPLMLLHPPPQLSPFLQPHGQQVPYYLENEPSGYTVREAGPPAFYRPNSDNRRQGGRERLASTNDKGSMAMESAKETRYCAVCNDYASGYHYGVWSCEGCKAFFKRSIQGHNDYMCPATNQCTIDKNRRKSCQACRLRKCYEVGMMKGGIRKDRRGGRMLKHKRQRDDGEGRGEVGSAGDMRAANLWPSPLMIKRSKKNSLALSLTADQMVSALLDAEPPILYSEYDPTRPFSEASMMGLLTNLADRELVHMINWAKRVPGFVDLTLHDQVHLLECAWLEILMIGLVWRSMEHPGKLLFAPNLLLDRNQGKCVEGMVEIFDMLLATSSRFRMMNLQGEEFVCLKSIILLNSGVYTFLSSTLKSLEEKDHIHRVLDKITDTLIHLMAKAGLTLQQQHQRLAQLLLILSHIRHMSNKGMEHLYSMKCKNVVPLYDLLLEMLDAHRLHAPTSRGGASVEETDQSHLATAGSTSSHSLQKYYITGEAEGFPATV
Protocol: The partial estrogenic action was also determined by transactivation assays. HeLa cells were […] with estrogen receptors and a reporter gene, which consists of the estrogen-response element of the progesterone receptor and the CAT-gene. The test was performed as described: Savouret et al., EMBO J. 10, 1875-1883 (1991).

[2] = test system: uterus of infant rats; assay: Anti-uterus growth test in infant rats (antiestrogenic action); assay type: in vivo, rat; details: with 0.3 μg/animal/day 17β-estradiol
From the text: The influence of the compounds according to the invention on the uterus was examined in the uterus growth test (estrogenic action) and in the anti-uterus growth test (antiestrogenic action), both performed on infant rats.
The uterus of infant estrogen-substituted rats can be used as a test model to detect a direct action of substances with antiestrogenic properties. The parameter of the estrogenic action is the uterus growth that is induced by estradiol in infant rats and that is inhibited by simultaneous administration of a substance with antiestrogenic action.
The test substances are treated s.c. on 3 successive days (d1-d3) in combination with a substitution dose of 0.3 μg/animal/day of 17β-estradiol. As a positive control, 17β-estradiol alone is used; the vehicle group is used as a negative control. On day 4 (d4), the animals are sacrificed, uteri and vaginae are prepared outside and weighed. The organ weights are converted into mg/100 g of body weight, and then the mean and the standard deviation for each dosage are calculated. The inhibition of the uterus or vaginal growth that is induced by 17β-estradiol is indicated in % as inhibition.

C[C@]12C[C@H](c3ccc(OCCCCCS(=O)(=O)Cc4ccccn4)cc3)[C@@H]3c4ccc(O)cc4CC[C@H]3[C@]13CC[C@@]2(O)CC3 [Compound A]
Emax [1]: 16% | Uterus Weight % of Inhibition ([2]; 0.1 mg/kg s.c.): 33% | Uterus Weight % of Inhibition ([2]; 1 mg/kg s.c.): 88% | Uterus Weight % of Inhibition ([2]; 10 mg/kg s.c.): 121%
